Experimental data published in US20230128730A1, “OXYGEN IMPERMEABLE PORPHYRIN PHOTOSENSITIZER FILM COMPOSITION FOR APPLICATION TO PLANTS” (SUNCOR ENERGY INC., priority 2020, published 2023).

System: Pseudomonas syringae pv. tabaci
Experiment: In vitro effect of PP IX and modified PP IX on Pseudomonas syringae pv. tabaci, with and without chelating agent
Assay type: cell-based
Settings: 10 μM; illumination 1 hour, about 1000 μmol/m^2/s PAR; PBS control 8.7
Protocol: In this example, control of the gram-negative bacterial plant pathogen Pseudomonas syringae pv. tabaci with PP IX and modified PP IX was assessed, with and without chelating agents. Treatments were prepared in Phosphate Buffered Saline (PBS) in 96 well plates at desired concentrations. A bacterial suspension was inoculated into the PBS and incubated at 28° C. in the dark for 30 minutes. After 30 minutes, the 96 well plate was placed under illumination for 1 hour (at 21° C.). Following illumination, bacterial suspensions were serially diluted and 10 μL of each dilution is spread uniformly on Tryptic Soy Agar (TSA) plates and placed in the dark in an incubator at 28° C. for 48 hours. After 48 hours, bacterial colonies were counted, and the results were log transformed (log colony forming units (CFU)/mL). The relative inactivation was determined by taking the difference between log CFU(PBS control) and log CFU(treatments). Sample Illumination was provided by LED lights (Heliospectra RX30) emitting about 1000 μmol/m^2/s photosynthetically active radiation (PAR).

## Protoporphyrin IX disodium salt [PP IX disodium salt]
  log CFU/ml: 7.4 log CFU/ml
